Patent US10100042B2, “[5,6]—fused bicyclic antidiabetic compounds” (Merck Sharp & Dohme Corp., priority 2014, dated 2018)

Tests used:
Assay type in all cases: cell-based
human GPR40 [1] = target: T1, human GPR40 (Homo sapiens (Human), UniProt O14842); assay: FLIPR assay, agonist-induced calcium mobilization in GPR40/CHO NFAT BLA cells
Protocol: (§1) Human and mouse GPR40 stable cell-lines were generated in CHO cells stably expressing NFAT BLA (Beta-lactamase). A human GPR40 stable cell-line was generated in HEK cells stably expressing the aequorin expressing reporter. The expression plasmids were transfected using lipofectamine (Life Technologies) following manufacturer's instructions. Stable cell-lines were generated following drug selection.
FLIPR (Fluorimetric Imaging Plate Reader, Molecular Devices) assays were performed to measure agonist-induced calcium mobilization of the stable clones. For the FLIPR assay, one day before assay, GPR40/CHO NFAT BLA cells were seeded into black-wall-clear-bottom 384-well plates (Costar) at 1.4×10e4 cells/20 μL medium/well. The cells were incubated with 20 μl/well of the assay buffer (HBSS, 0.1% BSA, 20 mM HEPES, 2.5 mM probenecid, pH 7.4) containing 8 μM fluo-4, AM, 0.08% pluronic acid at room temperature for 100 minutes. Fluorescence output was measured using FLIPR. Compounds were dissolved in DMSO and diluted to desired concentrations with assay buffer. 13.3 μL/well of compound solution was added.

human GPR40 [2] = target: T1, human GPR40; assay: Inositol Phosphate Turnover (IP1) Assay 1 in HEK cells stably expressing human GPR40; conditions: compound transferred via pocket tip
Protocol: as §1
(§2) The assay is performed in 384-well format. HEK cells stably expressing human GPR40 are plated at 15,000 cells per well in growth medium (DMEM/10% fetal calf serum). Cell plates are then incubated 16 hours at 37 degrees in a 5% CO2 incubator.
Measurement of Inositol Phosphate Turnover (IP1) is performed using the CisBio IP-One kit (Part number 62IPAPEB). After the 16 hour incubation, the cells are washed with HEPES buffer and 10 ul of stimulation buffer (prepared as described in the kit) is added to each well. In a separate plate, compounds are diluted in DMSO (400-fold over the final concentration in the assay well) and 25 nl is transferred via pocket tip to the appropriate well in the assay cell plate. The plates are then incubated for 60 minutes at 37 degrees. 10 ul of detection buffer (also prepared as described in the IP-One kit) is added to each well and the plates are incubated for 60 minutes in the dark. The plates are then read in a Perkin Elmer EnVision or equivalent reader able to measure FRET. Fluorescent ratio of emission at 665 and 620 nm is then converted to IP1 concentration by back calculating from an IP1 standard curve prepared at the time of the assay.

human GPR40 [3] = target: T1, human GPR40; assay: Inositol Phosphate Turnover (IP1) Assay 2 in HEK cells stably expressing human GPR40; conditions: compound acoustically transferred
Protocol: as §1, §2
Measurement of Inositol Phosphate Turnover (IP1) is performed using the CisBio IP-One kit (Part number 62IPAPEB). After the 16 hour incubation, the cells are washed with HEPES buffer and 10 ul of stimulation buffer (prepared as described in the kit) is added to each well. In a separate plate, compounds are diluted in DMSO (400-fold over the final concentration in the assay well) and 25 nl is acoustically transferred to the appropriate well in the assay cell plate. The plates are then incubated for 60 minutes at 37 degrees. […] The plates are then read in a Perkin Elmer EnVision or equivalent reader able to measure FRET. […]

T1 sequence (O14842 whole entry): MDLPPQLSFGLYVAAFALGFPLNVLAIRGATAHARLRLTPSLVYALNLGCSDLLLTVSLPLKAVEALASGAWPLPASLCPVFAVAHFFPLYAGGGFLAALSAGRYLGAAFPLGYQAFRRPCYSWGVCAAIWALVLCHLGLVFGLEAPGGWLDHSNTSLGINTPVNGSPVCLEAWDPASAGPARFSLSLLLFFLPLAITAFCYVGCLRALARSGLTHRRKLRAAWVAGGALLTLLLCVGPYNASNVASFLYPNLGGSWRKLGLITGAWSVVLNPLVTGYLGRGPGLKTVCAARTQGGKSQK

EC50 (human GPR40 [1]) [nM] | EC50 (human GPR40 [2]) [nM] | EC50 (human GPR40 [3]) [nM] | Compound
815 | 3690 | – | COc1cc(C)c(-c2cccc(-c3cc4cc(CCC(=O)O)ccc4o3)c2)cc1F [Example 9]
– | – | 37 | COc1cc(-c2ccc(CC3Cc4ccc([C@H](C5CC5)[C@H](C)C(=O)O)cc4O3)c(F)c2)ccn1 (single isomer, unassigned) [Example 6]
203 | 3220 | – | Cc1cccc(C)c1-c1cccc(-c2cc3cc(CCC(=O)O)ccc3o2)c1 [Example 7, 3-(2-(2′,6′-dimethyl-[1,1′-biphenyl]-3-yl)benzofuran-5-yl)propanoic acid]
– | – | 35 | COc1cc(-c2ccc(CC3Cc4ccc([C@H](C5CC5)[C@H](C)C(=O)O)cc4O3)c(F)c2)ccn1 (single isomer, unassigned) [Example 5]
– | 311 | – | COc1ccc(F)c(-c2ccc(C3Cc4ccc([C@@H](CC(=O)O)C5CC5)cc4O3)nc2)c1 (some centres unmarked) [Example 4]
20900 | – | – | O=C(O)CCc1ccc2oc(-c3ccc(C(F)(F)F)cc3)cc2c1 [Example 8]
306 | 6210 | – | Cc1cc(F)cc(C)c1-c1cccc(-c2cc3cc(CCC(=O)O)ccc3o2)c1 [Example 13]
540 | – | – | COc1cc(C)c(-c2cccc(-c3cc4cc(CCC(=O)O)ccc4o3)c2)c(C)c1 [Example 10]
716 | > 10000 | – | Cc1cc(C)c(-c2cccc(-c3cc4cc(CCC(=O)O)ccc4o3)c2)c(F)c1 [Example 12]
1190 | 4580 | – | COc1c(F)cc(-c2cccc(-c3cc4cc(CCC(=O)O)ccc4o3)c2)c(Cl)c1F [Example 11]
726 | > 10000 | – | O=C(O)CCc1ccc2oc(-c3cccc(-c4c(Cl)cccc4Cl)c3)cc2c1 [Example 14]
– | 215 | – | COc1ccc(F)c(-c2ccc(-c3cc4ccc([C@@H](CC(=O)O)C5CC5)cc4o3)nc2)c1 [Example 2]
1220 | – | – | Cc1cccc(C)c1-c1cccc(C2Cc3cc(CCC(=O)O)ccc3O2)c1 (racemic) [Example 18]
– | 66 | – | COc1ccc(F)c(-c2ccc(-c3cc4ccc([C@H](C5CC5)[C@H](C)C(=O)O)cc4o3)cc2)c1 [Example 1, (2S,3R)-3-cyclopropyl-3-(2-(2′-fluoro-5′-methoxy-[1,1′-biphenyl]-4-yl)benzofuran-6-yl)-2-methylpropanoic acid]
– | 105 | – | COc1ccc(F)c(-c2ccc(C3Cc4ccc([C@H](C5CC5)[C@H](C)C(=O)O)cc4O3)cc2)c1 (stereo partly drawn) [Example 3, (2S,3R)-3-cyclopropyl-3-(2-(2′-fluoro-5′-methoxy-[1,1′-biphenyl]-4-yl)-2,3-dihydrobenzofuran-6-yl)-2-methylpropanoic acid]

Compound | EC50 (human GPR40 [1]) [nM] | EC50 (human GPR40 [2]) [nM] | EC50 (human GPR40 [3]) [nM]
COc1cc(C)c(-c2cccc(C3Cc4cc(CCC(=O)O)ccc4O3)c2)c(C)c1 (centres unmarked) [Example 15] | 1490 | – | –
COc1cc(C)c(-c2cccc(C3Cc4cc(CCC(=O)O)ccc4O3)c2)c(C)c1 (single isomer, unassigned) [Example 16] | 624 | 5870 | –
COc1cc(C)c(-c2cccc(C3Cc4cc(CCC(=O)O)ccc4O3)c2)c(C)c1 (single isomer, unassigned) [Example 17] | 4320 | 3940 | –
